Assay results from patent publication US20030125265A1, “Anti-estrogen receptor agents for chemotherapy” (priority 2001, published 2003).
Where a SMILES comes first, the peptide text is derived from it. [ ]: non-standard residue; d: D form. The star is where a group is joined. Nva = CCC[C@H](N)C(=O)O; Cbz = O=C(OCc1ccccc1)*; OtBu = CC(C)(C)O*

Columns and labels:
[1] = tested on: Rb phosphorylation in MCF-7 cells; assay: Western blotting of Rb phosphorylation status; format: cell-based; conditions: MCF-7, in the presence of estrogen (FIG. 2B)
estrogen receptor [2] = target: T1, estrogen receptor (Homo sapiens, UniProt P03372); assay: Estrogen-induced estrogen receptor degradation with proteasome inhibitor, western blot; format: cell-based; conditions: MCF-7, 10 nM estradiol, 24 hours (FIG. 5)
T1 construct: MCF-7, T47D, and ZR-75-1, which are estrogen receptor positive cell lines, were used; endogenous in cells; host or cells: MCF-7
T1 sequence (P03372 1-595): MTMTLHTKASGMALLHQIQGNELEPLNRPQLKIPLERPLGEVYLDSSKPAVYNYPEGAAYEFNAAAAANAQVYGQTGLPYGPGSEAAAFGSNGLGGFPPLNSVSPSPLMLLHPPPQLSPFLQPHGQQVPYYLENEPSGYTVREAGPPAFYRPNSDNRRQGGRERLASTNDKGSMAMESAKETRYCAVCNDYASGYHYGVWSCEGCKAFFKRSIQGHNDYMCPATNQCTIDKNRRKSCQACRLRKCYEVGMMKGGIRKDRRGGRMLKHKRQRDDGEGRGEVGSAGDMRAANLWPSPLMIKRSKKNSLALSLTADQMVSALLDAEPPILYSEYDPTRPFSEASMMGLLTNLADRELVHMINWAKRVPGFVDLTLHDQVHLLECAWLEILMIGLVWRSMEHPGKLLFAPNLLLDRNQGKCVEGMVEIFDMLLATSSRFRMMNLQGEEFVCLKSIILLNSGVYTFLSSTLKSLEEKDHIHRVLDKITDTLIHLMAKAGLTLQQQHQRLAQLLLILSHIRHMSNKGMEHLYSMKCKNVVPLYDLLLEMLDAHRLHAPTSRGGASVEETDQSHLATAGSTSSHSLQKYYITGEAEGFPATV
Method: For the control, ethanol and DMSO were added. The protein was extracted and quantified by western blot analysis to detect estrogen receptor and actin (for protein loading).

estrogen receptor [3] = assay: Effect of protease inhibitors on emodin-induced estrogen receptor depletion, western blot; format: cell-based; conditions: for estrogen receptor protein level with emodin plus protease inhibitor: MCF-7, 40 μM emodin simultaneously, chloroquine 100 μM, EGTA 5 mM, MG115 25 μM, PSI 25 mM (FIG. 6)
[4] = tested on: breast tumor development in MMTV-v-Ha-ras transgenic mice; assay: Chemoprevention of breast tumor development in MMTV-v-Ha-ras transgenic mice; format: in vivo; conditions: emodin 1 mg/0.2 mL i.p. everyday from six weeks of age (FIG. 1B)
Method: (§1) The following example addresses whether a compound may be used as a chemoprevention agent. In a particular embodiment, emodin is tested for its use as a chemopreventive agent. Specifically, a MMTV-neu transgenic mouse model and a MMTV-v-Ha-ras transgenic mouse model were utilized to determine the effects of emodin on the development of breast tumor. In these models, the proto-neu oncogene and v-Ha-ras oncogene, respectively, were under the transcriptional control of the murine mammary tumor virus (MMTV) long terminal repeat (LTR). The transgenic mice develop multiple mammary tumors spontaneously. For FIG. 1A, MMTV-proto-neu female transgenic mice were randomly divided into three groups. […] Mice tumor development was monitored weekly. For FIG. 1B, MMTV-v-Ha-ras transgenic mice were administered emodin (n=7) (1 mg/0.2 mL) or DMSO solvent control (n=8) through i.p. injection everyday from six weeks of age.

MCF-7 cells [5] = assay: Thymidine incorporation, estrogen-induced DNA synthesis; format: cell-based; conditions: MCF-7, estrogen 10 nM, 20 hours; emodin 10 and 40 μM, tamoxifen 10 μM (FIG. 2A)
estrogen receptor [6] = assay: Estrogen receptor protein level in T47D cells; format: cell-based; conditions: 40 μM emodin, different time intervals
MCF-7 cells [7] = assay: Cell morphology and viability by trypan blue exclusion; format: cell-based; conditions: MCF-7, 4 hour treatment
Method: The effect on estrogen receptor was not a consequence of cytotoxicity, because MCF-7 cell morphology, as well as viability as assessed by trypan blue exclusion, were not affected after 4 hour treatment of emodin. The observed decrease in estrogen receptor protein level by emodin could be explained either by diminished protein synthesis or by enhanced protein degradation. To distinguish these two possibilities, a pulse-chase experiment was performed. The cells were labeled with [^35S] methionine for 1 hour and chased for 1 to 4 hours in the presence or absence of emodin. Pulse chase experiment was performed to determine the stability of the estrogen receptor proteins after treatment with emodin (see Example 1 for experimental details). In FIG. 4A, MCF-7 cells were treated with emodin at different time intervals. In FIG. 4B, MCF-7 cells were treated with DMSO at various time intervals. In FIG. 4C, proteins were quantitated by NIH Image software and plotted as the percentage of the value at the beginning of the chase.

[8] = tested on: breast tumor development in MMTV-neu transgenic mice; assay: Chemoprevention of breast tumor development in MMTV-neu transgenic mice; format: in vivo; conditions: MMTV-proto-neu female mice, emodin 0.5 mg or 1.0 mg weekly i.p. from 15 weeks of age (FIG. 1A)
Method: as §1

estrogen receptor [9] = assay: Estrogen receptor protein level by immunoblotting in ZR 75-1 cells; format: cell-based; conditions: ZR 75-1, 40 μM emodin, different time intervals (FIG. 3D)
Method: In a specific embodiment, emodin was tested for downregulation of estrogen receptor. […] Estrogen receptor protein levels in MCF-7 cells were measured by immunoblotting with monoclonal antibody D75. The same membrane was stripped and reprobed with anti-β-actin antibody to show the protein loading. […] The proteins were quantitated by NIH Image software and plotted as the percentage control (without emodin) and normalized with actin in FIG. 3B. […] ZR75-1 estrogen receptor positive breast cancer cell lines were treated with emodin (40 μM) for different time points. Immunoblot analysis for estrogen receptor were performed.

estrogen receptor [10] = assay: Pulse-chase stability of estrogen receptor protein; format: cell-based; conditions: MCF-7, 40 μM emodin, chase 1 to 4 hours (FIG. 4)
Method: Metabolic labeling of protein, immunoprecipitation and gel electrophoresis—MCF-7 cells were incubated for 1 h at 37° C. in methionine-free medium containing 5% dialyzed, heat-inactivated FCS, with or without emodin (40 μM). [^35S] methionine was added to yield 100 μCi/ml in the medium. Incubation was continued for an additional hour. Cells were then rinsed twice with warm, complete medium and were incubated in complete medium with or without emodin (40 μM) at various intervals. Labeled cells were lysed in RIPA-B lysis buffer. Anti-estrogen receptor antibody (D75) immunoprecipitation was performed from 500 μg total cellular protein overnight at 4° C. 20 μg of rabbit anti-rat antibody was added to the mixture and incubated for 45 minutes at 4° C. Protein A-agarose was added and incubated for 45 minutes at 4° C. The mixture was washed three times with cold PBS. […] The intensity of the proteins was quantitated by NIH Image. Results were calculated as the percentage of the controls measured at the start of the chase period.
The effect on estrogen receptor was not a consequence of cytotoxicity, because MCF-7 cell morphology, as well as viability as assessed by trypan blue exclusion, were not affected after 4 hour treatment of emodin. […] In FIG. 4C, proteins were quantitated by NIH Image software and plotted as the percentage of the value at the beginning of the chase.

estrogen receptor [11] = assay: Estrogen receptor protein level by immunoblotting in MCF-7 cells
[12] = target: hsp90-estrogen receptor heteromeric complex (Homo sapiens, UniProt P03372); assay: Co-immunoprecipitation of hsp90 and estrogen receptor; format: cell-based

How did the Rb phosphorylation status [1] turn out when “4-hydroxytamoxifen [4-hydroxy-tamoxifen, reference compound]” was run?
The Rb phosphorylation status was “remained underphosphorylated”.

For `CCC[C@@H](C=O)NC(=O)[C@H](CC(C)C)NC(=O)[C@H](CC(C)C)NC(=O)OCc1ccccc1` [MG115, carbobenzoxyl-leucinyl-leucinyl-norvalinal-II] (Cbz-Leu-Leu-[Nva]-aldehyde), which “estrogen receptor level after estrogen stimulation with proteasome inhibitor” value (estrogen receptor [2]) is on record?
Its value is “protected from degradation”.

What about the “estrogen receptor protein level with emodin plus protease inhibitor” value (estrogen receptor [3]) of the same compound?
Its value is “striking suppression”.

How did the “estrogen receptor protein level with emodin plus protease inhibitor” value (estrogen receptor [3]) turn out when `CC[C@H](C)[C@H](NC(=O)OCc1ccccc1)C(=O)N[C@@H](CCC(=O)OC(C)(C)C)C(=O)N[C@@H](C)C(=O)N[C@H](C=O)CC(C)C` [PS1, N-Benzyloxycarbonyl-Ile-Glu(O-t-butyl)-Ala-leucinal] (Cbz-IE(OtBu)AL-aldehyde) was run?
The value was “striking suppression”.

Which results are given for `Cc1cc(O)c2c(c1)C(=O)c1cc(O)cc(O)c1C2=O` [emodin]?
mammary tumor development [4]: chemopreventive activity; estrogen stimulated DNA synthesis (thymidine incorporation) (MCF-7 cells [5]): […]; Rb phosphorylation status [1]: remained underphosphorylated; depletion of estrogen receptor polypeptide (estrogen receptor [6]): enhance the depletion; cell morphology and viability (trypan blue exclusion) (MCF-7 cells [7]): not affected; mammary tumor development [8]: chemopreventive activity; depletion of estrogen receptor polypeptide (estrogen receptor [9]): enhance the depletion; turnover of newly synthesized estrogen receptor (estrogen receptor [10]): strikingly enhanced; estrogen receptor protein level (estrogen receptor [3]; MCF-7, 40 μM emodin alone (FIG. 6)): decreased rapidly; estrogen receptor protein level, percentage of control (estrogen receptor [11]; MCF-7, 40 μM emodin, two hours, normalized with actin (FIG. 3B)): […]; IC50 (estrogen receptor [11]; read-out: dose required for repressing 50% of estrogen receptor (IC50), MCF-7, 4 hours): […]; amount of hsp90-bound estrogen receptor ([12]; MCF-7, 40 μM emodin (FIG. 7A)): markedly increased; cellular levels of hsp90 ([12]; MCF-7, 40 μM emodin (FIG. 7B)): remained unchanged

How did the “estrogen receptor polypeptide level” value (estrogen receptor [11]; MCF-7, 18 hours, genistein 100 μM, RG13022 5 μM (FIG. 3C)) turn out when `COc1ccc(/C=C(\C#N)c2cccnc2)cc1OC` [RG13022, reference compound] was run?
The value was “significantly reduced”.

Which “estrogen stimulated DNA synthesis (thymidine incorporation)” value (MCF-7 cells [5]) does the source give for `CC/C(=C(\c1ccccc1)c1ccc(OCCN(C)C)cc1)c1ccccc1` [tamoxifen, reference compound] here?
Its value is “inhibit”.
